Measured values from ChEMBL document CHEMBL5321279 (J Med Chem, 2023).
Active and inactive are the calls of the source. No cut-off for these calls is given here.

Experiments:
[1] = AUC(0 to 24 hrs) in African green monkey infected with SARS-CoV-2 assessed as prodrug conversion by measuring (2R,3R,4S,5R)-2-(4-aminopyrrolo[2,1-f][1,2,4]triazin-7-yl)-3,4-dihydroxy-5-(hydroxymethyl)tetrahydrofuran-2-carbonitrile at 10 mg/kg, iv qd administered for day 1 followed by 5 mg/kg administration measured after 6 days by LC-MS/MS analysis; format: ADME, organism-based, Severe acute respiratory syndrome coronavirus 2; set-up: dose 10 mg/kg, time 6 day, route iv; settings: in vivo
[2] = (§1) Cytotoxicity against quiescent human PBMC cells assessed as reduction in cell growth measured after 5 days by CellTiter-Glo assay; format: toxicity, cell-based; settings: quiescent PBMC, time 5 day
[3] = (§2) Cytotoxicity against human HepG2 cells assessed as reduction in cell growth measured after 5 days by CellTiter-Glo assay; format: toxicity, cell-based; settings: HepG2 cells, time 5 day
[4] = Prodrug conversion in SARS-CoV-2 infected in African green monkey assessed as (2R,3R,4S,5R)-2-(4-aminopyrrolo[2,1-f][1,2,4]triazin-7-yl)-3,4-dihydroxy-5-(hydroxymethyl)tetrahydrofuran-2-carbonitrile mediated log10 reduction of genomic RNA at 10 mg/kg, iv qd administered for day 1 followed by 5 mg/kg administration measured after 6 days by RT-qPCR analysis; format: ADME, organism-based, Severe acute respiratory syndrome coronavirus 2; settings: in vivo, time 6 day
[5] = (§3) Cytotoxicity against human PC-3 cells assessed as reduction in cell growth measured after 5 days by CellTiter-Glo assay; format: toxicity, cell-based; settings: PC-3 cells, time 5 day
in vivo = settings: dog, po, 5 mg/kg
[6] = AUC(0 to 24 hrs) in rat at 1 mg/kg, iv measured upto 24 hrs by LC-MS/MS analysis; format: ADME, organism-based; set-up: dose 1 mg/kg, time < 24 hrs, route iv; settings: in vivo
[7] = AUC(0 to 24 hrs) in African green monkey infected with SARS-CoV-2 assessed as prodrug conversion by measuring (2R,3R,4S,5R)-2-(4-aminopyrrolo[2,1-f][1,2,4]triazin-7-yl)-3,4-dihydroxy-5-(hydroxymethyl)tetrahydrofuran-2-carbonitrile at 7.5 mg/kg, iv qd measured after 6 days by LC-MS/MS analysis; format: ADME, organism-based, Severe acute respiratory syndrome coronavirus 2; set-up: dose 7.5 mg/kg, time 6 day, route iv; settings: in vivo
[8] = AUC(0 to 24 hrs) in African green monkey at 5 mg/kg, po measured upto 24 hrs by LC-MS/MS analysis; format: ADME, organism-based; set-up: time < 24 hrs, dose 5 mg/kg, route po; settings: chlorocebus sabaeus, in vivo
[9] = Oral bioavailability in rat assessed as prodrug conversion by measuring (2R,3R,4S,5R)-2-(4-aminopyrrolo[2,1-f][1,2,4]triazin-7-yl)-3,4-dihydroxy-5-(hydroxymethyl)tetrahydrofuran-2-carbonitrile at 6 mg/kg measured upto 24 hrs by LC-MS/MS analysis; format: ADME, organism-based; settings: in vivo
[10] = AUC(0 to 24 hrs) in dog at […], po measured upto 24 hrs by LC-MS/MS analysis; format: ADME, organism-based, Canis lupus familiaris; settings: in vivo
[11] = Stability of compound in human gastrointestinal S9 fraction assessed as half life at pH 7.4 measured upto 120 mins by LC-MS/MS analysis; format: ADME, subcellular, Gastrointestinal tract
SARS-CoV-2 [12] = experiment: Antiviral activity against SARS-CoV-2 infected in African green monkey assessed as reduction in viral load in BALF at 60 to 120 mg/kg, po qd administered for 6 days starting from 8 hrs post infection by PFA assay; format: functional, organism-based; settings: Severe acute respiratory syndrome coronavirus 2, dose lower 60.0 mg/kg, dose upper […], time 6.0 day
CES1b = experiment: Stability of compound assessed as human recombinant CES1b-mediated compound hydrolysis by measuring half life at pH 7.4 using oseltamivir as substrate measured upto 120 mins by LC-MS/MS analysis; format: ADME; settings: pH 7.4, probe oseltamivir
[13] = AUC(0 to 24 hrs) in African green monkey at 60 mg/kg, po measured upto 24 hrs by LC-MS/MS analysis; format: ADME, organism-based; set-up: dose 60 mg/kg, time < 24 hrs, route po; settings: chlorocebus sabaeus, in vivo
[14] = Half life in rat assessed as prodrug conversion by measuring (2R,3R,4S,5R)-2-(4-aminopyrrolo[2,1-f][1,2,4]triazin-7-yl)-3,4-dihydroxy-5-(hydroxymethyl)tetrahydrofuran-2-carbonitrile at 6 mg/kg, po measured upto 24 hrs by LC-MS/MS analysis; format: ADME, organism-based; settings: in vivo
SARS-CoV-2 [15] = experiment: Antiviral activity against SARS-CoV-2 infected in African green monkey assessed as reduction in viral load in BALF at 120 mg/kg, po qd administered for 6 days starting from 8 hrs post infection by PFA assay; format: functional, organism-based; settings: Severe acute respiratory syndrome coronavirus 2, time 6.0 day
SARS-CoV-2 [16] = experiment: Antiviral activity against SARS-CoV-2 infected in African green monkey assessed as reduction in viral titer in nasal swabs at 60 to 120 mg/kg, po qd administered for 4 days starting from 8 hrs post infection by PFA assay; format: functional, organism-based; settings: Severe acute respiratory syndrome coronavirus 2, dose lower 60.0 mg/kg, dose upper […], time 4.0 day
[17] = Stability of compound in human liver S9 fraction assessed as half life at pH 7.4 measured upto 90 mins by LC-MS/MS analysis; format: ADME, subcellular
PBMC = experiment: as §1; format: toxicity, cell-based; settings: pbmc, 120 h, time 5 day
[18] = Cmax in African green monkey assessed as prodrug conversion by measuring (2R,3R,4S,5R)-2-(4-aminopyrrolo[2,1-f][1,2,4]triazin-7-yl)-3,4-dihydroxy-5-(hydroxymethyl)tetrahydrofuran-2-carbonitrile at 60 mg/kg, po measured upto 24 hrs by LC-MS/MS analysis; format: ADME, organism-based; set-up: dose 60 mg/kg, time < 24 hrs, route po; settings: chlorocebus sabaeus, in vivo
HepG2 = experiment: as §2; format: toxicity, cell-based; settings: hepg2, 120 h, time 5 day
CES2 (cocaine esterase) = molecular target: T1, CES2 (cocaine esterase) (Homo sapiens, UniProt O00748); experiment: Stability of compound assessed as human recombinant CES2-mediated compound hydrolysis by measuring half life at pH 7.4 using oseltamivir as substrate measured upto 120 mins by LC-MS/MS analysis; format: ADME; settings: recombinant CES2, pH 7.4, probe oseltamivir
T1 sequence (O00748 whole entry): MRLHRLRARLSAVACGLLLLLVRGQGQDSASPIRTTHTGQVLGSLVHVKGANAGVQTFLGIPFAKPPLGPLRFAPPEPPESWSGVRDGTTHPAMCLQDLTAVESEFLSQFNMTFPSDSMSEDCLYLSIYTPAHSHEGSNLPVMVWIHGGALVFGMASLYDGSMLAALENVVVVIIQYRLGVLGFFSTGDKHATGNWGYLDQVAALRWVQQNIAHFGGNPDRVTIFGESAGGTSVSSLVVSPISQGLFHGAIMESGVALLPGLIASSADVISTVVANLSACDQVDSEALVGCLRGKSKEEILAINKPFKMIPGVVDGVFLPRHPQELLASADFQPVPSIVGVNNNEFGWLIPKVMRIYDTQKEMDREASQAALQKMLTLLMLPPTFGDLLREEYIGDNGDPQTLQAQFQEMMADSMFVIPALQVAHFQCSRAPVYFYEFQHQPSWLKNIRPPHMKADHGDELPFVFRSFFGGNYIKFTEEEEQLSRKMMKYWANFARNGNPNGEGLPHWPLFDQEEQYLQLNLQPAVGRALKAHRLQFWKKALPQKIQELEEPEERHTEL

PC-3 = experiment: as §3; format: toxicity, cell-based; settings: pc-3, 120 h, time 5 day
[19] = AUC(0 to 24 hrs) in cynomolgus monkey at 11.7 mg/kg, po measured upto 24 hrs by LC-MS/MS analysis; format: ADME, organism-based, Macaca fascicularis; set-up: dose 11.7 mg/kg, time < 24 hrs, route po; settings: in vivo
SARS-CoV-2 [20] = experiment: Antiviral activity against SARS-CoV-2 infected in African green monkey assessed as reduction in viral titer in terminal respiratory tissue at 60 to 120 mg/kg, po qd administered for 6 days starting from 8 hrs post infection by PFA assay; format: functional, organism-based; settings: Severe acute respiratory syndrome coronavirus 2, dose lower 60.0 mg/kg, dose upper […], time 6.0 day
SARS-CoV-2 [21] = experiment: Antiviral activity against SARS-CoV-2 infected in African green monkey assessed as reduction in genomic RNA load in BALF at 60 to 120 mg/kg, po qd administered for 6 days starting from 8 hrs post infection by RT-qPCR analysis; format: functional, organism-based; settings: Severe acute respiratory syndrome coronavirus 2, dose lower 60.0 mg/kg, dose upper […], time 6.0 day

Compound: CCC(CC)COC(=O)[C@H](C)N[P@](=O)(OC[C@H]1O[C@@](C#N)(c2ccc3c(N)ncnn23)[C@H](O)[C@@H]1O)Oc1ccccc1
- AUC [1]: 7.9 µM·h
- CC50 at 120 h [2]: > 20 µM
- CC50 at 120 h [3]: 11.1 µM
- log(activity) [4]: -1.38
- CC50 at 120 h [5]: 1.4 µM

Compound: N#C[C@@]1(c2ccc3c(N)ncnn23)O[C@H](CO)[C@@H](O)[C@H]1O [GS-441524]
- bioavailability at 24 h (in vivo): 89%
- AUC [6]: 2.5 µM·h
- AUC [7]: ~ 55 uM.hr
- AUC [8]: 3.15 µM·h

Compound: CC(C)C(=O)OC[C@H]1O[C@@](C#N)(c2ccc3c(N)ncnn23)[C@H](O)[C@@H]1O [OBELDESIVIR]
- F [9]: 63%
- AUC [10]: 0.4 µM·h
- half-life [11]: < 2 min
- Activity (SARS-CoV-2 [12]): Active
- half-life (CES1b): 4 min
- AUC [13]: 0.03 µM·h
- t1/2 [14]: 121 min
- Activity (SARS-CoV-2 [15]): Active
- Activity (SARS-CoV-2 [16]): Active
- half-life at […] [17]: < 2 min
- CC50 (PBMC): > 100 µM
- Cmax [18]: 22.5 µM
- CC50 (HepG2): 71 µM
- half-life (CES2 (cocaine esterase)): < 2 min
- CC50 (PC-3): > 100 µM
- AUC [19]: 0.01 µM·h
- Activity (SARS-CoV-2 [20]): Active
- Activity (SARS-CoV-2 [21]): Active
